In patent US11167007B2, “FOXM1 modulators and uses thereof” (City of Hope, priority 2016, dated 2021):

Assays:
[1] = biological target: T1, AR with a 24 glutamine tract (normal) (Homo sapiens, UniProt P10275, DUP80-80); test: Luciferase reporter assay in HEK293 cells transfected with ARQ24; assay type: cell-based; details: HEK293, AR 24 glutamines, FIG. 2C
T1 construct: expressed in transfected cells; host or cells: HEK293
Source text: (§1) Luciferase Reporter Assay. Cells were transfected using Lipofectamine Plus (Invitrogen) with a normalization plasmid (pRL-SV40, Promega) and an androgen responsive plasmid (MMTV-luciferase or PSA-luciferase) as described in Jones et al, ACS Chem Biol, 3(7):412-8 (2008), and, where indicated, with an shRNA plasmid targeting FOXM1 (adapted for mouse FOXM1 sequence targeting) a scrambled control shRNA plasmid, or ARQ24 or ARQ65 plasmids. Christensen et al, PLoS One, 8(1):e54556 (2013). The following day, cells and drugs were distributed to 96-well plates. 24 hours later, luciferase activity was assessed by a dual luciferase assay kit (Promega) on the Tecan plate reader. Samples were run in quadruplicates and a Student's t test was performed to determine significance, where p<0.05 was considered significant.
(§2) SBMA is caused by the activity of polyglutamine-expanded AR, and experiments were conducted to investigate the effects of thiostrepton against polyglutamine-expanded AR. AR-negative HEK293 cells were transfected with plasmids encoding AR with a 24 glutamine tract (normal) or with a 65 glutamine tract (disease associated). The polyglutamine-expanded AR was less transcriptionally active than the normal AR, as has been previously documented for such constructs. Kazemi-Esfarjani et al, Hum Mol Genet, 4:523-527 (1995).

[2] = biological target: T2, AR with a 65 glutamine tract (disease associated) (Homo sapiens, UniProt P10275, INS80QQQQQQQQQQQQQQQQQQQQQQQQQQQQQQQQQQQQQQQQQQ); test: Luciferase reporter assay in HEK293 cells transfected with ARQ65; assay type: cell-based; details: HEK293, AR 65 glutamines, FIG. 2C
T2 construct: expressed in transfected cells; host or cells: HEK293
T2 sequence (P10275 with tags, fused parts or gaps with the stated changes): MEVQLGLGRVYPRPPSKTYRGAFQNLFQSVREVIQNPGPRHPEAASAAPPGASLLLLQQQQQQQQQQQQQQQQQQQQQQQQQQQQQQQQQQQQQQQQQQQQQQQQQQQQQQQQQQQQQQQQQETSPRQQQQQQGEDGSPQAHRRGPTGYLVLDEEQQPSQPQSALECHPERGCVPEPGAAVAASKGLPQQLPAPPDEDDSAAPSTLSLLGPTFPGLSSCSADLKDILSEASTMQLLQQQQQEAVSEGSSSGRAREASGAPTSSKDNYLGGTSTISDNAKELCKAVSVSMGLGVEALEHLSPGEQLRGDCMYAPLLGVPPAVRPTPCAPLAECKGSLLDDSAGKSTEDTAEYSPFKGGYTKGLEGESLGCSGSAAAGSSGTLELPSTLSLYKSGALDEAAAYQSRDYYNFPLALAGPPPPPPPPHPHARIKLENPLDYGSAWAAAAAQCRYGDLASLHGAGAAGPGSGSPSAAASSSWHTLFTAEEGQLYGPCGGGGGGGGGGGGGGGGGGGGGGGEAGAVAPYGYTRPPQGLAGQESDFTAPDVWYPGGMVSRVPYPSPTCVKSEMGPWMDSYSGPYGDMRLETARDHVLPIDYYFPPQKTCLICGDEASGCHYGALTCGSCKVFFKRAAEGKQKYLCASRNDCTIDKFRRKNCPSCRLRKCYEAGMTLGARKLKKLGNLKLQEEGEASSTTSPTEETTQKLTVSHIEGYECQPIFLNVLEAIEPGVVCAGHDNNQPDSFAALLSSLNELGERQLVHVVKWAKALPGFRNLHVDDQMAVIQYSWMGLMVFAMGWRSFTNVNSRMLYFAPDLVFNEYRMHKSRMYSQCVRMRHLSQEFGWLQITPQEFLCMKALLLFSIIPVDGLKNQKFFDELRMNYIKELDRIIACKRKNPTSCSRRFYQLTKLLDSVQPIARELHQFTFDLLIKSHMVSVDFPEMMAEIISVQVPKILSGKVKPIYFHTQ
Source text: as §1, §2

[3] = Pilot pharmacokinetic study, plasma and spinal fluid by LC-MS/MS; assay type: in vivo, rat
Experimental: Animals and Drugs. This study was carried out in strict accordance with the recommendations in the Guide for the Care and Use of Laboratory Animals of the National Institutes of Health. All experiments were performed under the IUCAC approval of City of Hope. Animals were purchased from Jackson Laboratory (Bar Harbor, Main). For the pilot pharmacokinetic experiment, nine male Sprague Dawley rats (n=3) were administered 1, 10, or 100 mg/kg intraperitoneal injections thrice per week for four weeks. One hour following the final dose, blood and spinal fluid were collected and analyzed by mass spectrometry. For the efficacy experiment, rats were divided into 3 groups (n=7) as follows: intact, castrated, and thiostrepton. Thiostrepton was dissolved in 20% DMSO and 80% PEG400 (Sigma Aldrich) and administered at a concentration of 50 mg/kg per day via an IP osmotic pump implant (Alzet). Following a treatment period of 7 days, rats were euthanized and organs harvested, weighed and processed for quantitative RT-PCR.
LC-MS/MS methods. Dried samples were resuspended in tetrahydrofuran spiked with 5 pg/μl reserpine, which was used as an instrument response control. Resuspended samples were separated with an Agilent 1290 UHPLC system (Agilent Technologies, Santa Clara, Calif.) and a Waters Acquity CSH C18 column (Waters, Millford, Mass.) using a linear gradient from 95% buffer A (0.1% formic acid in 60% water/40% acetonitrile) to 100% buffer B (0.1% formic acid in 90% isopropanol/10% acetonitrile) over 2.5 minutes at 380 μL/minute. The UHPLC column eluent was sprayed into an Agilent 6490 triple quadrupole mass spectrometer equipped with a JetStream source (Agilent Technologies). Thiostrepton was detected by monitoring fragments from the doubly charged ion (m/z 832.9) at m/z 1247.4 and 1230.3. Data was analyzed using Agilent MassHunter quantitative analysis software.
A pilot pharmacokinetic study in rats was conducted to achieve desired dosing and to determine if thiostrepton crosses the blood brain barrier. Rats (n=3/group) received low (1 mg/kg), medium (10 mg/kg), or high (100 mg/kg) doses of thiostepton by intraperitoneal (IP) injection, three times a week for four weeks. One hour after the final dose, animals were euthanized and blood and spinal fluid was collected and analyzed by LC-MS/MS (FIG. 5A).

T1 sequence (P10275 with tags, fused parts or gaps DUP80-80): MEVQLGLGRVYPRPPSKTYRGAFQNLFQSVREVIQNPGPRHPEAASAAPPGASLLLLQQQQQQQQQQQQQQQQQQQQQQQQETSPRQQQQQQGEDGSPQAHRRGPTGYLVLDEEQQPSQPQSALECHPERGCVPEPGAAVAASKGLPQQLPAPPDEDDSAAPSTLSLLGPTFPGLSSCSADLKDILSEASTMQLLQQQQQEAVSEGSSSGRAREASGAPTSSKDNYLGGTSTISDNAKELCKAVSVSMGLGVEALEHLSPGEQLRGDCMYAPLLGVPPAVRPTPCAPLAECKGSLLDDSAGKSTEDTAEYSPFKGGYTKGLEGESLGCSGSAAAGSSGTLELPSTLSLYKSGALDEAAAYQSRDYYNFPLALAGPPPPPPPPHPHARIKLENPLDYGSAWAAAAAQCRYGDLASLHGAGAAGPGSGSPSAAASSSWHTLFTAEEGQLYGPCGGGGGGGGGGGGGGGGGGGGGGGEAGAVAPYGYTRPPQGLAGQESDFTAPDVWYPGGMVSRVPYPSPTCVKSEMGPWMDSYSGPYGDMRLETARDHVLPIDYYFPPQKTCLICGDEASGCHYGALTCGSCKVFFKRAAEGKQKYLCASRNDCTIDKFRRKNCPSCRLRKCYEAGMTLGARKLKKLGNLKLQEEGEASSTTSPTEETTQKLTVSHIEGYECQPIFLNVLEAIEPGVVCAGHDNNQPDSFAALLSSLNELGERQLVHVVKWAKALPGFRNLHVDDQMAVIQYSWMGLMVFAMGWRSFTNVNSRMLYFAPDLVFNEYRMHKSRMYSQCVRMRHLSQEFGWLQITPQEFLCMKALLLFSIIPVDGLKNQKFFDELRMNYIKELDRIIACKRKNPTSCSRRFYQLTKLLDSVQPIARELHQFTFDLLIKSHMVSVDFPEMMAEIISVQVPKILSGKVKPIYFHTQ

C=C(NC(=O)C(=C)NC(=O)c1csc(C2=N[C@@H]3c4csc(n4)[C@H]4NC(=O)c5csc(n5)[C@H]([C@](C)(O)[C@@H](C)O)NC(=O)[C@H]5CSC(=N5)/C(=C/C)NC(=O)[C@H]([C@@H](C)O)NC(=O)c5csc(n5)[C@]3(CC2)NC(=O)[C@H](C)NC(=O)C(=C)NC(=O)[C@H](C)NC(=O)[C@H]([C@@H](C)CC)N[C@@H]2C=Cc3c([C@H](C)O)cc(nc3[C@H]2O)C(=O)O[C@@H]4C)n1)C(N)=O [thiostrepton]
inhibition of non-expanded AR activity (luciferase) [1]: inhibited
inhibition of polyglutamine-expanded AR activity (luciferase) [2]: inhibited
plasma levels ([3]; rats, 1, 10, 100 mg/kg IP three times a week for four weeks, one hour after final dose): dose-dependent increase
spinal fluid level relative to plasma ([3]; rats, IP, one hour after final dose): much lower levels than the plasma
spinal fluid concentration relative to IC50 in luciferase assay ([3]; rats, high dose): above its IC50
levels of drug in the spinal fluid ([3]; rats, high dose (100 mg/kg) IP, one hour after final dose): measurable levels
